The source of these data is patent publication US20050032807A1, “Methods of treating inflammatory diseases with ammonium salts of ornitihine derivatives” (priority 2003, published 2005).

Each structure is given as a SMILES string.

Series [1] deals with T1, dihydrofolate reductase (DHFR) (Mus musculus, UniProt P00375).
T1 sequence (P00375 1-187): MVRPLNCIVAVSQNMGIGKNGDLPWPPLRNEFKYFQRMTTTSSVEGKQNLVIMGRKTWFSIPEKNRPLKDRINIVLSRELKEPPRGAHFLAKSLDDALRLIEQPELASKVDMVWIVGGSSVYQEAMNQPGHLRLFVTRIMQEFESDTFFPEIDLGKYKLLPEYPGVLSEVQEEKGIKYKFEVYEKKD
Particulars: Rosowsky et al., J. Med. Chem. 29, 655-660 (1986); cited from earlier work.

The subject of series [2] is folylpolyglutamate synthetase (FPGS). Particulars: Rosowsky et al., J. Med. Chem. 29, 655-660 (1986); cited from earlier work.
Series [3] concerns cell growth in culture. Particulars: Rosowsky et al., J. Med. Chem. 29, 655-660 (1986); cited from earlier work.
For series [4] the following is noted: lyophilization of the dilute ammonium hydroxide solution to the ammonium salt.

As to `NCCC[C@H](NC(=O)c1ccc(NCc2cnc3nc(N)nc(N)c3n2)cc1)C(=O)O` [APA-L-Orn, N^α-(4-amino-4-deoxypteroyl)-L-ornithine], the “inhibition of dihydrofolate reductase (DHFR)” value in series [1] is recorded as “potent inhibitor”. Moreover, the “inhibition of folylpolyglutamate synthetase (FPGS)” value in series [2] is “potent inhibitor”. Also, the “inhibition of cell growth in culture” value in series [3] is “relatively inactive”.
For the molecule `N.N.Nc1nc(N)c2nc(CNc3ccc(C(=O)N[C@@H](CCCNC(=O)c4ccccc4C(=O)O)C(=O)O)cc3)cnc2n1` [compound 8, N^α-(4-Amino-4-deoxypteroyl)N^δ-hemiphthaloyl-L-ornithine ammonium salt], the product decomposition entry in series [4] is on record as “minimal”.
